Like-named read-outs stand apart in the source and are kept apart here.
Key:
[1] = test system: human monocyte-derived macrophages (HMDM); settings: each agent individually, at lower doses; LDL-depleted HMDM (FIGS. 8, 9)
Excerpt: (§1) Blood was drawn and collected from healthy human volunteers, and LDL was isolated by density gradient centrifugation following methods known to one of ordinary skill in the art (e.g., Napolitano et al., Int J Biochem Cell Biol, 35:1127-43, 2002). Monocytes were also isolated from the blood and separated by Ficoll Hypaque centrifugation also according to known methods (e.g., Napolitano et al., Eur J Clin Invest, 35:482-90, 2005), followed by negative magnetic separation and maintained in culture with 20% autologous serum or F-10 medium for 5-7 days to differentiate into human monocyte-derived macrophages (HMDM). […] Following the pre-incubation step, LDL (100 μg/ml) was added and the cells were incubated for 24 hours. Supernatants were used for assessing oxidized LDL by ELISA (Mercodia) and/or TBARS (“Thiobarbituric Acid Reactive Substances”) as described previously (Devaraj et al., J Clin Invest 98:756, 1996). To assess the glutathione:glutathione disulfide (GSH:GSSG) ratio as an indicator of the redox poise of the cell, cells were dislodged by PBS-EDTA and were lysed (Pierce MPER) after a freeze-thaw cycle. After sonication and centrifugation, the cell pellet was stored at −80° C. until the relative levels of GSH and GSSG were assayed (Oxis Biochemicals). […]

NQO1 = experiment: Inhibition of LDL oxidation in HMDM with SiNQO1 silencing; settings: 100 μg/ml LDL (FIG. 12)
Excerpt: as §1

quinone reductase = settings: for QUINONE REDUCTASE ACTIVITY, Expt. 1 / QUINONE REDUCTASE ACTIVITY, Expt. 2 / QUINONE REDUCTASE ACTIVITY, Expt. 3 / QUINONE REDUCTASE ACTIVITY, Average: HMDM + LDL; for QUINONE REDUCTASE ACTIVITY, Average: average of Expt. 1-3; for quinone reductase activity (in words): each agent individually, LDL-treated HMDM (Table 1, FIGS. 10A,B)
Excerpt: Blood was drawn and collected from healthy human volunteers, and LDL was isolated by density gradient centrifugation following methods known to one of ordinary skill in the art (e.g., Napolitano et al., Int J Biochem Cell Biol, 35:1127-43, 2002). Monocytes were also isolated from the blood and separated by Ficoll Hypaque centrifugation also according to known methods (e.g., Napolitano et al., Eur J Clin Invest, 35:482-90, 2005), followed by negative magnetic separation and maintained in culture with 20% autologous serum or F-10 medium for 5-7 days to differentiate into human monocyte-derived macrophages (HMDM). […] Following the pre-incubation step, LDL (100 μg/ml) was added and the cells were incubated for 24 hours. Supernatants were used for assessing oxidized LDL by ELISA (Mercodia) and/or TBARS (“Thiobarbituric Acid Reactive Substances”) as described previously (Devaraj et al., J Clin Invest 98:756, 1996). To assess the glutathione:glutathione disulfide (GSH:GSSG) ratio as an indicator of the redox poise of the cell, cells were dislodged by PBS-EDTA and were lysed (Pierce MPER) after a freeze-thaw cycle. After sonication and centrifugation, the cell pellet was stored at −80° C. until the relative levels of GSH and GSSG were assayed (Oxis Biochemicals). Quinone reductase activity was assayed following the method described previously (J. Fahey et al., Methods in Enzymology 382, 243-258, 2004).

[2] = test system: human monocyte-derived macrophages (HMDM); experiment: Macrophage-mediated LDL oxidation in HMDM (oxidized LDL by ELISA and/or TBARS); type: cell-based; settings: for concentrations that significantly inhibit the oxidation of LDL: agent alone, 100 μg/ml LDL, p<0.01 compared to LDL control (FIG. 1, FIG. 2); for concentrations that significantly inhibit the oxidation of LDL / maximum inhibition of LDL oxidation: HMDM; for maximum inhibition of LDL oxidation: each agent individually, dose-dependent, compared to the LDL control, 100 μg/ml LDL (FIG. 1, FIG. 2); for IC50: α-tocopherol alone
Procedure: Raw broccoli extracts (“BE” or “B. Extract”) were prepared from four hybrids. […] 50 grams of extract were mixed with equal parts 50mM MES buffer pH 6.0 solution. Samples were blended for approximately 1 minute until homogeneous then maintained at room temperature for 10 min. Filtrates from samples were diluted 1:40 with 50 mM MES buffer for the assay. […] Assays with the broccoli extracts were performed as described above.

Compound: Cc1c(C)c2c(c(C)c1O)CC[C@@](C)(CCC[C@H](C)CCC[C@H](C)CCCC(C)C)O2 [α-tocopherol]
- GSH:GSSG ratio [1]: restored the ratio to normal levels
- effectiveness at inhibiting LDL oxidation after NQO1 silencing (NQO1): reduced but not complete reduction of the effectiveness
- QUINONE REDUCTASE ACTIVITY, Expt. 1 (quinone reductase; 6.25 μM α-tocopherol): 59.87 nmol/min/mg protein
- QUINONE REDUCTASE ACTIVITY, Expt. 2 (quinone reductase; 6.25 μM α-tocopherol): 68.97 nmol/min/mg protein
- QUINONE REDUCTASE ACTIVITY, Expt. 3 (quinone reductase; 6.25 μM α-tocopherol): 41.12 nmol/min/mg protein
- QUINONE REDUCTASE ACTIVITY, Average (quinone reductase; 6.25 μM α-tocopherol): 56.65 nmol/min/mg protein
- QUINONE REDUCTASE ACTIVITY, Expt. 1 (quinone reductase; 12.5 μM α-tocopherol): 66.45 nmol/min/mg protein
- QUINONE REDUCTASE ACTIVITY, Expt. 2 (quinone reductase; 12.5 μM α-tocopherol): 69.47 nmol/min/mg protein
- QUINONE REDUCTASE ACTIVITY, Expt. 3 (quinone reductase; 12.5 μM α-tocopherol): 42.25 nmol/min/mg protein
- QUINONE REDUCTASE ACTIVITY, Average (quinone reductase; 12.5 μM α-tocopherol): 59.39 nmol/min/mg protein
- QUINONE REDUCTASE ACTIVITY, Expt. 1 (quinone reductase; 25 μM α-tocopherol): 68.98 nmol/min/mg protein
- QUINONE REDUCTASE ACTIVITY, Expt. 2 (quinone reductase; 25 μM α-tocopherol): 64.56 nmol/min/mg protein
- QUINONE REDUCTASE ACTIVITY, Expt. 3 (quinone reductase; 25 μM α-tocopherol): 65.14 nmol/min/mg protein
- QUINONE REDUCTASE ACTIVITY, Average (quinone reductase; 25 μM α-tocopherol): 66.23 nmol/min/mg protein
- QUINONE REDUCTASE ACTIVITY, Expt. 1 (quinone reductase; 50 μM α-tocopherol): 77.14 nmol/min/mg protein
- QUINONE REDUCTASE ACTIVITY, Expt. 2 (quinone reductase; 50 μM α-tocopherol): 74.19 nmol/min/mg protein
- QUINONE REDUCTASE ACTIVITY, Expt. 3 (quinone reductase; 50 μM α-tocopherol): 66.23 nmol/min/mg protein
- QUINONE REDUCTASE ACTIVITY, Average (quinone reductase; 50 μM α-tocopherol): 72.52 nmol/min/mg protein
- quinone reductase activity (in words) (quinone reductase): only a modest effect
- effect on LDL oxidation ([2]; 25 μM α-tocopherol individually applied (FIG. 11)): reduced LDL oxidation
- concentrations that significantly inhibit the oxidation of LDL [2]: greater than 12.5 μM
- maximum inhibition of LDL oxidation [2]: 58%
- IC50 ([2]; FIG. 5 experiment): 53.1 µM
- IC50 ([2]; FIG. 7 experiment): 23.6 µM

Compound: C[S+]([O-])CCCCN=C=S (stereo not drawn) [sulforaphane]
- GSH:GSSG ratio [1]: restored the ratio to normal levels
- QUINONE REDUCTASE ACTIVITY, Expt. 1 (quinone reductase; 2 μM sulforaphane): 151.23 nmol/min/mg protein
- QUINONE REDUCTASE ACTIVITY, Expt. 2 (quinone reductase; 2 μM sulforaphane): 124.23 nmol/min/mg protein
- QUINONE REDUCTASE ACTIVITY, Expt. 3 (quinone reductase; 2 μM sulforaphane): 104.56 nmol/min/mg protein
- QUINONE REDUCTASE ACTIVITY, Average (quinone reductase; 2 μM sulforaphane): 126.6733 nmol/min/mg protein
- quinone reductase activity (in words) (quinone reductase): restored enzymatic activity to normal levels
- effect on LDL oxidation ([2]; 2 μM sulforaphane individually applied (FIG. 11)): reduced LDL oxidation
- concentrations that significantly inhibit the oxidation of LDL [2]: greater than 2 μM
- maximum inhibition of LDL oxidation [2]: 58%
